Here are results for six compounds from publication PMC10600239, “Selective MCL-1 inhibitor ABBV-467 is efficacious in tumor models but is associated with cardiac troponin increases in patients” (Communications Medicine, 2023).

Usually EC50 stands for the concentration that produces a half-maximal response.

One test has as its system MV4-11 cells. As to the kind of experiment: In vitro cell viability assay (CellTiter-Glo). The format is cell-based, human. The method, then:
(§1) All cell lines were grown and treated in RPMI 1640 or Dulbecco’s modified Eagle medium (Sigma, St. Louis, MO) supplemented with 10% fetal bovine serum (Gibco) or 10% human serum (Sigma) and maintained in a humidified incubator at 5% CO2 and 37 °C. DLD-1, MV4-11, NCI-H929 (all ATCC, Manassas, VA, USA) and AMO-1 (DSMZ, Braunschweig, Germany) cells were plated 4000 cells per well in 384-well tissue culture plates and treated with compounds of interest for 24 h at 37 °C, 5% CO2 humidified incubator. Each concentration was tested in duplicate at least 3 separate times. Adherent cells were allowed to adhere overnight prior to treatment. Alternatively, AMO-1 or NCI-H929 cells were treated with ABBV-467 for the indicated contact times (1–24 h) at 37 °C in a 5% CO2 humidified incubator and washed 3 times with compound-free media prior to incubation for the remainder of a 24-h treatment period. Cell viability was subsequently determined using CellTiter-Glo (Promega, Madison, WI, USA) according to the manufacturer’s instructions.
(§2) For in vitro viability assays, mean EC50 and EC90 values were determined from the resulting dose-response curves from at least 3 independent experiments, and depict the mean ± standard error of the mean.
On the technique in general: In ATP-based viability assays light output follows the ATP content of the culture.

For another test, the system named is DLD-1 cells. As to the kind of experiment: In vitro cell viability assay (CellTiter-Glo). The following applies: Homo sapiens. The format is cell-based, human. The method, then:
as §1, §2

The test system of the next test is AMO-1 cells. As to the kind of experiment: In vitro cell viability assay (CellTiter-Glo). In kind it is cell-based, human. The method, then:
as §1, §2
(§3) Fig. 2 Apoptosis induced by ABBV-467 is mechanism based and induces cell death in MCL-1-dependent cell lines after short target engagement periods. H929 cells were treated with ABBV-467 in the presence or absence of the pan-caspase inhibitor z-VAD-fmk (50 µM) and the impact on caspase-3/7 activation (a), mitochondrial membrane potential (ΔΨm; b), and apoptosis (c) determined. Alternatively, BAK-deficient SKBR3 cells were treated with ABBV-467 for 24 h and the impact on cell viability compared with the parental cell line, determined by CellTiter-Glo. Inset depicts a western blot of BAK and BAX expression in SKBR3 cell variants using GAPDH as a loading control. Each of the 3 proteins were probed on separate blots (d). Data in (a–d) are presented as the mean ± standard error of the mean. H929 and AMO-1 cells were treated with ABBV-467 at the indicated concentrations and the impact on caspase-3/7 activation and viability (DRAQ7-positive) cells determined over time by Incucyte®. Data are presented as the mean ± standard deviation (e). H929 or AMO-1 cells were cultured in media containing 10% human serum and treated with ABBV-467 for the indicated contact times. Cells were subsequently washed 3 times with drug-free media and incubated in drug-free media for the remainder of the 24-h treatment period at 37 °C before cell viability was determined by CellTiter-Glo. Mean EC50 and EC90 values were determined from the resulting dose-response curves from at least 3 independent experiments, each assessed in quadruplicate, and depict the mean ± standard error of the mean. Presented ABBV-467 dose-response curves in H929 and AMO-1 cells were compiled from at least 3 independent experiments (f).

Another test relates to H929 cells. Kind of test: In vitro cell viability assay (CellTiter-Glo). In kind it is cell-based, human. Here is the method: as §1, §2, §3
The next test concerns SKBR3 cells. As to the kind of experiment: Cell viability of parental and BAK-, BAX-, BCL2L11-, PMAIP1-deficient SKBR3 cells (CellTiter-Glo). In kind it is cell-based. Also noted: SKBR3 BAK Fig 2D: unit not given here. The method, then:
as §3
Supplementary Fig. S5: SKBR3 cells deficient in BAX, BAK , PM AIP 1 (gene encoding the protein NOXA),
BCL 2L 11 (gene encoding the protein BIM) were treated with ABBV-467 for 24 hours and the impact on
cell death compared to the parental cell line determined by CellTiter- Glo™.

Where [1] appears, read: Homo sapiens, MV4-11, 24 h, read-out: MV4-11 EC50 (nM, 10% FBS), 10% FBS, 24 h continuous treatment.
[2] abbreviates: DLD-1, read-out: DLD-1 EC50 (nM), 10% FBS, 24 h continuous treatment.
Where [3] appears, read: Homo sapiens, AMO1, 24 h, read-out: AMO-1 EC50 (nM, 10% FBS), 10% FBS, 24 h continuous treatment.
The mark [4] stands for this setting: Homo sapiens, NCI-H929, 24 h, read-out: H929 EC50 (nM, 10% FBS), 10% FBS, 24 h continuous treatment.
Setting [5] is: Homo sapiens, MV4-11, MV4-11, arithmetic mean, read-out: Arithmetic Mean EC50 nM.
The mark [6] stands for this setting: Homo sapiens, MV4-11, MV4-11, arithmetic mean, read-out: Arithmetic Mean EC50 µM.
[7] abbreviates: Homo sapiens, MV4-11, MV4-11, individual determinations, read-out: Individual EC50.
The mark [8] stands for this setting: MV4-11, individual determinations, read-out: Individual EC50.
The mark [9] stands for this setting: DLD-1, arithmetic mean, read-out: Arithmetic Mean EC50.
[10] abbreviates: DLD-1, individual determinations, read-out: Individual EC50.
The mark [11] stands for this setting: AMO-1, individual determinations, read-out: Individual EC50.
The mark [12] stands for this setting: Homo sapiens, AMO1, AMO-1, arithmetic mean, read-out: Arithmetic Mean EC50 nM.
The mark [13] stands for this setting: Homo sapiens, AMO1, AMO-1, arithmetic mean, read-out: Arithmetic Mean EC50 µM.
Setting [14] is: Homo sapiens, AMO1, AMO-1, individual determinations, read-out: Individual EC50.
[15] abbreviates: Homo sapiens, NCI-H929, NCI-H929, arithmetic mean, read-out: Arithmetic Mean EC50 nM.
[16] abbreviates: Homo sapiens, NCI-H929, NCI-H929, arithmetic mean, read-out: Arithmetic Mean EC50 µM.
Where [17] appears, read: NCI-H929, individual determinations, read-out: Individual EC50.

“And” between values parts separate entries of the source, which are not always exact repeats. Equal values may be shown once. Read-outs that look alike come from different tables or passages of the source. Some results are limits rather than exact numbers.

`CO[C@H]1/C=C/C[C@H](C)[C@@H](C)S(=O)(=O)NC(=O)c2ccc3c(c2)N(C[C@@H]2CC[C@H]21)C[C@@]1(CCCc2cc(Cl)ccc21)CO3` [AMG 176, reference compound]: the EC50 in the test with MV4-11 cells (setting [1]) was 106 nM; with DLD-1 cells (setting [2]) it was above 10000 nM; in the test on AMO-1 cells (setting [3]), 90.6 nM; in the test on H929 cells (setting [4]) it was 195 nM.
On to `CO[C@]1(CN2CCN3CCCC[C@@H]3C2)/C=C/C[C@H](C)[C@@H](C)S(=O)(=O)NC(=O)c2ccc3c(c2)N(C[C@@H]2CC[C@H]21)C[C@@]1(CCCc2cc(Cl)ccc21)CO3` [AMG 397, reference compound], for which the EC50 in the test with MV4-11 cells (setting [1]) is 43.6 nM; in the test with MV4-11 cells (setting [5]), 43.6 nM; in the test with MV4-11 cells (setting [6]), 43.6 nM; with MV4-11 cells (setting [7]), 44.3 nM; with MV4-11 cells (setting [8]), 42 nM and 44.6 nM; in the test on DLD-1 cells (setting [2]), above 10000 nM. Moreover, the concentration giving a half-maximal response (EC50) is above 10000 nM in the test on DLD-1 cells (setting [9]); above 10000 nM in the test with DLD-1 cells (setting [10]); 13.1 nM and 12.8 nM in the test on AMO-1 cells (setting [11]); 13.5 nM in the test with AMO-1 cells (setting [3]); 13.5 nM in the test with AMO-1 cells (setting [12]); 13.5 nM in the test with AMO-1 cells (setting [13]). Also, the EC50 with AMO-1 cells (setting [14]) was 14.8 nM; with H929 cells (setting [4]), 13 nM; with H929 cells (setting [15]) it was 13 nM; with H929 cells (setting [16]), 13 nM; in the test with H929 cells (Homo sapiens, NCI-H929, NCI-H929, individual determinations, read-out: Individual EC50), 12.7 nM; in the test with H929 cells (setting [17]) it was 13.4 nM and 12.9 nM.
Take `CO[C@H]1/C=C/C[C@H](C)[C@@H](C)S(=O)(=O)NC(=O)c2ccc3c(c2)N(C[C@@H]2CC[C@H]21)C[C@@]1(CCCc2cc(Cl)ccc21)CO3` [AMG-176]: the EC50 in the test on MV4-11 cells (setting [5]) is 106 nM; in the test with MV4-11 cells (setting [6]), 106 nM; in the test with MV4-11 cells (setting [8]), 85.5 nM and 203 nM; in the test on DLD-1 cells (setting [9]), above 10000 nM; in the test with DLD-1 cells (setting [10]) it was above 10000 nM; with AMO-1 cells (setting [11]) it was 105 nM and 130 nM and 174 nM. The EC50 was found to be 90.6 nM in the test with AMO-1 cells (setting [12]), 90.6 nM in the test with AMO-1 cells (setting [13]), 195 nM in the test with H929 cells (setting [15]) and 195 nM in the test on H929 cells (setting [16]).
With `Cc1c2c(nn1C)CSCc1cc(n(C)n1)CSc1cc(c3ccccc3c1)OCCCc1c(C(=O)O)n(C)c3c-2c(Cl)ccc13` [AZD5991, reference compound], the EC50 in the test with MV4-11 cells (setting [1]) was 34.9 nM; in the test with DLD-1 cells (setting [2]), above 10000 nM; with AMO-1 cells (setting [3]), 22.9 nM; in the test with H929 cells (setting [4]), 31.7 nM.
As to `Cc1c2c(nn1C)CSCc1cc(n(C)n1)CSc1cc(c3ccccc3c1)OCCCc1c(C(=O)O)n(C)c3c-2c(Cl)ccc13` [AZD-5991], the EC50 in the test with MV4-11 cells (setting [5]) was 34.9 nM; in the test with MV4-11 cells (setting [6]) it was 34.9 nM; with MV4-11 cells (setting [7]) it was 36.3 nM; in the test on MV4-11 cells (setting [8]) it was 35 nM and 33.3 nM; with DLD-1 cells (setting [9]) it was above 10000 nM; in the test with DLD-1 cells (setting [10]), above 10000 nM. The EC50 in the test with AMO-1 cells (setting [11]) was 18.6 nM and 18.3 nM and 31.9 nM; with AMO-1 cells (setting [12]) it was 22.9 nM; with AMO-1 cells (setting [13]), 22.9 nM; in the test on AMO-1 cells (setting [14]) it was 22.8 nM; with H929 cells (setting [15]), 31.6 nM; in the test on H929 cells (setting [16]), 31.6 nM. Besides, the concentration for a half-maximal effect (EC50) in the test on H929 cells (setting [17]) is 22 nM and 20.4 nM and 19.8 nM and 64.4 nM.
Turning to `Cc1c(Cl)c2c(Cl)c(C)c1-c1c(-c3ccc(F)cc3)sc3ncnc(c13)O[C@@H](C(=O)O)Cc1cc(ccc1OCc1ccnc(-c3ccc(OC[C@H]4COCCO4)cc3)n1)OC[C@@H](CN1CCN(C)CC1)O2` [Compound A-1747745.7], the “SKBR3 BAK Fig 2D” value was 84.0406 and 88.7361 and 91.3691 with SKBR3 cells (SKBR3 BAK-/-, Log [A-1747745.7] uM 0.045757); 91.5492 and 90.6375 and 98.324 in the test with SKBR3 cells (SKBR3 BAK-/-, Log [A-1747745.7] uM 0.522879); 71.243 and 87.693 and 82.7613 in the test on SKBR3 cells (SKBR3 BAK-/-, Log [A-1747745.7] uM 1); 93.7393 and 91.7734 and 95.9555 with SKBR3 cells (SKBR3 BAK-/-, Log [A-1747745.7] uM -0.43136); 91.4405 and 96.0162 and 91.1767 with SKBR3 cells (SKBR3 BAK-/-, Log [A-1747745.7] uM -0.90849); 96.4117 and 96.5016 and 91.1114 with SKBR3 cells (SKBR3 BAK-/-, Log [A-1747745.7] uM -1.38561). The “SKBR3 BAK Fig 2D” value in the test on SKBR3 cells (SKBR3 BAK-/-, Log [A-1747745.7] uM -1.86273) is 100.833 and 96.8873 and 90.9219; in the test on SKBR3 cells (SKBR3 BAK-/-, Log [A-1747745.7] uM -2.33985), 101.031 and 99.3037 and 92.3815; with SKBR3 cells (SKBR3 BAK-/-, Log [A-1747745.7] uM -2.81697) it was 103.475 and 99.2425 and 96.192; in the test on SKBR3 cells (SKBR3 BAK-/-, Log [A-1747745.7] uM -3.29409) it was 92.6268 and 101.141 and 97.8192; in the test on SKBR3 cells (SKBR3 BAK-/-, Log [A-1747745.7] uM -3.79) it was 106.888 and 100.173 and 98.0201; with SKBR3 cells (SKBR3 Parent, Log [A-1747745.7] uM -1.86273), 28.8447 and 52.516 and 42.8969. Moreover, the “SKBR3 BAK Fig 2D” value in the test on SKBR3 cells (SKBR3 Parent, Log [A-1747745.7] uM -2.33985) is 83.0425 and 94.5116 and 88.5924; in the test with SKBR3 cells (SKBR3 Parent, Log [A-1747745.7] uM -2.81697), 98.7606 and 99.166 and 97.8729; in the test on SKBR3 cells (SKBR3 Parent, Log [A-1747745.7] uM -3.29409), 89.9706 and 97.7937 and 96.3217; in the test with SKBR3 cells (SKBR3 Parent, Log [A-1747745.7] uM -3.79) it was 100.8 and 103.293 and 99.6415.
